Assays:
APOL1 G2 [1] = target: T1, APOL1 G2 (Homo sapiens, UniProt O14791, DEL388-389); assay: APOL1 G2 HEK293 rescue of cell death caused by overexpression of APOL1 (CellTiter-Glo); type: cell-based; conditions: HEK293/T-REx APOL1 G2 clone #2, doxycycline induction, 17 hours, CellTiter-Glo luminescence; reversal of cell death; geometric mean of at least 2 assay runs
T1 construct: expressed in transfected cells; host or cells: HEK293/T-REx APOL1 G2 clone #2, doxycycline-inducible
T1 sequence (O14791 with tags, fused parts or gaps DEL388-389): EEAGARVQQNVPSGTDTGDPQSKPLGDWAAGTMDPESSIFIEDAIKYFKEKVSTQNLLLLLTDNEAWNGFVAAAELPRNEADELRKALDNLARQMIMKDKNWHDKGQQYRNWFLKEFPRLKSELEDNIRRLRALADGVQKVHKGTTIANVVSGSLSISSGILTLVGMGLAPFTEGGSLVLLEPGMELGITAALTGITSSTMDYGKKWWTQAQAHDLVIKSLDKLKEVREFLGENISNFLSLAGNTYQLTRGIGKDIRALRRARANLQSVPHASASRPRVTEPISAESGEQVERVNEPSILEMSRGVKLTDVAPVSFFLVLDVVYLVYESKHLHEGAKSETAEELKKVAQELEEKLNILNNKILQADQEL
Procedure, shortened: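 Doxycycline (6 ng/mL)-induced HEK293/T-REx APOL1 G2 clone seeded at 5,000 cells/well with compound in duplicate 8-point 3-fold series (0.5% DMSO), 17 h at 37 °C. CellTiter-Glo luminescence; EC50 from four-parameter logistic fit, geometric mean of ≥2 runs.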

APOL1 G2 [2] = target: T1, APOL1 G2; assay: APOL1 G2 FLIPR calcium influx assay (HEK T-REx/GCaMP6f/APOL1 G2 K6.3 cells); type: cell-based; conditions: HEK293 clone expressing GCaMP6f, doxycycline-induced APOL1 G2; prevention of calcium influx; geometric mean of at least 2 assay runs
Procedure, shortened: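 HEK293 clone stably expressing GCaMP6f, APOL1 G2 induced with doxycycline for 6 h; compounds (duplicate 8-point dose response) preincubated 10 min at room temperature in Ca2+-free Tyrode's buffer, pH 7.4. Ca2+ added to 5 mM final, influx read on FLIPR; AC50 is geometric mean of ≥2 runs.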

CS(=O)(=O)C1(c2ccc(OC[C@@H]3CN(CCc4cc(Cl)cc(C#N)c4)CCN3)cc2)COC1 [Compound 111, 3-chloro-5-{2-[(3S)-3-{[4-(3-methanesulfonyloxetan-3-yl)phenoxy]methyl}piperazin-1-yl]ethyl}benzonitrile]
EC50 (APOL1 G2 [1]): 137 nM
AC50 (APOL1 G2 [2]): < 116 nM

C[C@@H]1C[C@H](COc2ccc(S(C)(=O)=O)cc2)CN1C1Cc2ccc(Cl)cc2C1 (single isomer, unassigned) [Compound 3, (2R,4S)-1-[(2R or 2S)-5-chloro-2,3-dihydro-1H-inden-2-yl]-4-[(4-methanesulfonylphenoxy)methyl]-2-methylpyrrolidine]
EC50 (APOL1 G2 [1]): 398 nM
AC50 (APOL1 G2 [2]): 721 nM

CC(C(O)c1cc(Cl)cc(C#N)c1)N1C[C@@H](COc2ccc(S(C)(=O)=O)cc2)C[C@H]1C (single isomer, unassigned) [Compound 97, 3-chloro-5-[(1S,2S or 1R,2R or 1R,2S or 1S,2R)-1-hydroxy-2-[(2R,4S)-4-[(4-methanesulfonylphenoxy)methyl]-2-methylpyrrolidin-1-yl]propyl]benzonitrile]
EC50 (APOL1 G2 [1]): 2100 nM
AC50 (APOL1 G2 [2]): 813 nM

C[C@@H]1CN(CCc2cc(Cl)cc(C#N)c2)C[C@H]1COc1ccc(S(C)(=O)=O)nc1 [Compound 85, 3-chloro-5-{2-[(3S,4S)-3-{[(6-methanesulfonylpyridin-3-yl)oxy]methyl}-4-methylpyrrolidin-1-yl]ethyl}benzonitrile]
EC50 (APOL1 G2 [1]): 186 nM
AC50 (APOL1 G2 [2]): 221 nM

Cc1cc(OC[C@@H]2CN(CCc3cc(Cl)cc(C#N)c3)C[C@H]2C)ccc1S(C)(=O)=O [Compound 84, 3-chloro-5-{2-[(3S,4S)-3-[(4-methanesulfonyl-3-methylphenoxy)methyl]-4-methylpyrrolidin-1-yl]ethyl}benzonitrile]
EC50 (APOL1 G2 [1]): 28.6 nM
AC50 (APOL1 G2 [2]): 182 nM

CC(=O)N(C)CCS(=O)(=O)c1ccc(OC[C@H]2C[C@@H](C)N(CCc3cccc(C#N)c3)C2)cc1 [Compound 67, N-[2-(4-{[(3S,5R)-1-[2-(3-cyanophenyl)ethyl]-5-methylpyrrolidin-3-yl]methoxy}benzenesulfonyl)ethyl]-N-methylacetamide]
EC50 (APOL1 G2 [1]): 50.3 nM
AC50 (APOL1 G2 [2]): 337 nM

C[C@@H]1C[C@H](COc2ccc(S(C)(=O)=O)nc2)CN1CC(O)c1cccc(C#N)c1 (single isomer, unassigned) [Compound 93, 3-[(1R or 1S)-1-hydroxy-2-[(2R,4S)-4-{[(6-methanesulfonylpyridin-3-yl)oxy]methyl}-2-methylpyrrolidin-1-yl]ethyl]benzonitrile]
EC50 (APOL1 G2 [1]): 1670 nM
AC50 (APOL1 G2 [2]): 1250 nM

C[C@@H]1C[C@H](COc2ccc(S(C)(=O)=O)cc2)CN1CC(CO)c1cc(Cl)cc(C#N)c1 (single isomer, unassigned) [Compound 130, 3-chloro-5-[(2S or 2R)-1-hydroxy-3-[(2R,4S)-4-[(4-methanesulfonylphenoxy)methyl]-2-methylpyrrolidin-1-yl]propan-2-yl]benzonitrile]
EC50 (APOL1 G2 [1]): 303 nM
AC50 (APOL1 G2 [2]): 1940 nM

C[C@@H]1CN(CC(CO)c2cc(Cl)cc(C#N)c2)C[C@H]1COc1ccc(S(C)(=O)=O)cc1 (single isomer, unassigned) [Compound 128, 3-chloro-5-[(2S or 2R)-1-hydroxy-3-[(3S,4S)-3-[(4-methanesulfonylphenoxy)methyl]-4-methylpyrrolidin-1-yl]propan-2-yl]benzonitrile]
EC50 (APOL1 G2 [1]): 711 nM
AC50 (APOL1 G2 [2]): 1510 nM

C[C@@H]1C[C@H](COc2ccc(S(C)(=O)=O)cc2)CN1C1CCc2c(C#N)cc(Cl)cc2C1 (single isomer, unassigned) [Compound 9, (6S or 6R)-3-chloro-6-[(2R,4S)-4-[(4-methanesulfonylphenoxy)methyl]-2-methylpyrrolidin-1-yl]-5,6,7,8-tetrahydronaphthalene-1-carbonitrile]
EC50 (APOL1 G2 [1]): 516 nM
AC50 (APOL1 G2 [2]): 1280 nM

C[C@@H]1C[C@H](COc2ccc(S(=O)(=O)CCO)cc2)CN1C1CCc2ccc(Cl)cc2C1 (single isomer, unassigned) [Compound 63, 2-(4-{[(3S,5R)-1-[(2S or 2R)-7-chloro-1,2,3,4-tetrahydronaphthalen-2-yl]-5-methylpyrrolidin-3-yl]methoxy}benzenesulfonyl)ethan-1-ol]
EC50 (APOL1 G2 [1]): 24.8 nM
AC50 (APOL1 G2 [2]): 188 nM

CS(=O)(=O)c1ccc(OC[C@H]2C[C@H]3CCCC(Cc4cc(Cl)cc(C#N)c4)N3C2)cc1 (single isomer, unassigned) [Compound 125, 3-{[(2S,5R or 5S,8aR)-2-[(4-methanesulfonylphenoxy)methyl]-octahydroindolizin-5-yl]methyl}-5-chlorobenzonitrile]
EC50 (APOL1 G2 [1]): 449 nM
AC50 (APOL1 G2 [2]): 2210 nM

C[C@@H]1C[C@H](COc2ccc(S(C)(=O)=O)nc2)CN1CCc1cc(C#N)cc(C#N)c1 [Compound 39, 5-{2-[(2R,4S)-4-{[(6-methanesulfonylpyridin-3-yl)oxy]methyl}-2-methylpyrrolidin-1-yl]ethyl}benzene-1,3-dicarbonitrile]
EC50 (APOL1 G2 [1]): 121 nM
AC50 (APOL1 G2 [2]): 554 nM

Cc1cc(OC[C@H]2C[C@@H](C)N(CC(O)c3cccc(C#N)c3)C2)cnc1S(C)(=O)=O (single isomer, unassigned) [Compound 95, 3-[(1R or 1S)-1-hydroxy-2-[(2R,4S)-4-{[(6-methanesulfonyl-5-methylpyridin-3-yl)oxy]methyl}-2-methylpyrrolidin-1-yl]ethyl]benzonitrile]
EC50 (APOL1 G2 [1]): 1140 nM
AC50 (APOL1 G2 [2]): 1040 nM

CN=S(C)(=O)c1ccc(OC[C@@H]2CN(CCc3cccc(C#N)c3)C[C@H]2C)cn1 (single isomer, unassigned) [Compound 73]
EC50 (APOL1 G2 [1]): 375 nM
AC50 (APOL1 G2 [2]): 351 nM

C[C@@H]1C[C@H](COc2ccc(S(C)(=O)=O)cc2)CN1C1CCc2c(C#N)cccc2C1 (single isomer, unassigned) [Compound 134, (6R or 6S)-6-[(2R,4S)-4-[(4-methanesulfonylphenoxy)methyl]-2-methylpyrrolidin-1-yl]-5,6,7,8-tetrahydronaphthalene-1-carbonitrile]
EC50 (APOL1 G2 [1]): 292 nM
AC50 (APOL1 G2 [2]): 601 nM

C[C@@H]1CN(C(CO)Cc2cccc(Cl)c2)C[C@H]1COc1ccc(S(C)(=O)=O)cc1 (single isomer, unassigned) [Compound 116, (2R or 2S)-3-(3-chlorophenyl)-2-[(3S,4S)-3-[(4-methanesulfonylphenoxy)methyl]-4-methylpyrrolidin-1-yl]propan-1-ol]
EC50 (APOL1 G2 [1]): > 10000 nM
AC50 (APOL1 G2 [2]): 1700 nM

C[C@@H]1CN(CCc2cc(Cl)cc(C#N)c2)C[C@H]1COc1ccc(C2(S(C)(=O)=O)COC2)cc1 [Compound 78, 3-chloro-5-{2-[(3S,4S)-3-{[4-(3-methanesulfonyloxetan-3-yl)phenoxy]methyl}-4-methylpyrrolidin-1-yl]ethyl}benzonitrile]
EC50 (APOL1 G2 [1]): 25.8 nM
AC50 (APOL1 G2 [2]): 114 nM

CN=S(C)(=O)c1ccc(OC[C@H]2C[C@@H](C)N(C3CCc4ccc(C#N)cc4C3)C2)cc1 (single isomer, unassigned) [Compound 38, (7S or 7R)-7-[(2R,4S)-2-methyl-4-({4-[methyl(methylimino)oxo-λ^6-sulfanyl]phenoxy}methyl)pyrrolidin-1-yl]-5,6,7,8-tetrahydronaphthalene-2-carbonitrile]
EC50 (APOL1 G2 [1]): 65 nM
AC50 (APOL1 G2 [2]): 590 nM

C[C@@H]1CN(C2CCc3ccc(Cl)cc3C2)C[C@H]1COc1ccc(S(C)(=O)=O)cc1 (single isomer, unassigned) [Compound 15, (3S,4S)-1-[(2S or 2R)-7-chloro-1,2,3,4-tetrahydronaphthalen-2-yl]-3-[(4-methanesulfonylphenoxy)methyl]-4-methylpyrrolidine]
EC50 (APOL1 G2 [1]): 1830 nM
AC50 (APOL1 G2 [2]): 1750 nM

C[C@@H]1C[C@H](COc2ccc(S(=O)(=O)CCS(C)(=O)=O)cc2)CN1C1CCc2ccc(Cl)cc2C1 (stereo partly drawn) [Compound 49, (2R,4S)-1-[7-chloro-1,2,3,4-tetrahydronaphthalen-2-yl]-4-{[4-(2-methanesulfonylethanesulfonyl)phenoxy]methyl}-2-methylpyrrolidine]
EC50 (APOL1 G2 [1]): 193 nM
AC50 (APOL1 G2 [2]): 558 nM

C[C@@H]1CN(CCc2cc(C#N)cc(C#N)c2)C[C@H]1COc1ccc(S(C)(=O)=O)nc1 [Compound 74, 5-{2-[(3S,4S)-3-{[(6-methanesulfonylpyridin-3-yl)oxy]methyl}-4-methylpyrrolidin-1-yl]ethyl}benzene-1,3-dicarbonitrile]
EC50 (APOL1 G2 [1]): 665 nM
AC50 (APOL1 G2 [2]): 479 nM

C[C@@H]1C[C@H](COc2ccc(S(=O)(=O)CCS(C)(=O)=O)cc2)CN1C1CCc2c(C#N)cc(Cl)cc2C1 (stereo partly drawn) [Compound 46, 3-chloro-6-[(2R,4S)-4-{[4-(2-methanesulfonylethanesulfonyl)phenoxy]methyl}-2-methylpyrrolidin-1-yl]-5,6,7,8-tetrahydronaphthalene-1-carbonitrile]
EC50 (APOL1 G2 [1]): 418 nM
AC50 (APOL1 G2 [2]): 1610 nM

From patent publication US20260055083A1, “APOL1 INHIBITORS AND METHODS OF USE” (Maze Therapeutics, Inc., priority 2022, published 2026)
